Test results: ChEMBL document CHEMBL1146391, “Antifungal diterpenoid alkaloids from Delphinium denudatum” (1997)
Converted amounts (≈) assume the structure as drawn. The source made the active and inactive calls. The calls are words filed in the database; no cut-off is given here.

Assays:
[1] = test system: Scedosporium boydii; test: Antifungal activity against Allescheria boydii after 7 days by agar tube dilution method; type: functional; details: 168 h
[2] = test system: Aspergillus niger; test: Antifungal activity against Aspergillus niger after 7 days by agar tube dilution method; type: functional; details: 168 h
[3] = test system: Epidermophyton floccosum; test: Antifungal activity against Epidermophyton floccosum after 7 days by agar tube dilution method; type: functional; details: 168 h
[4] = test system: Pleurotus ostreatus; test: Antifungal activity against Pleurotus ostreatus after 7 days by agar tube dilution method; type: functional; details: 168 h
[5] = test system: Stachybotrys chartarum; test: Antifungal activity against Stachybotrys atra after 7 days by agar tube dilution method; type: functional, organism-based
[6] = test system: Nigrospora oryzae; test: Antifungal activity against Nigrospora oryzae after 7 days by agar tube dilution method; type: functional, organism-based
[7] = Antifungal activity against Dutarium rotatum after 7 days by agar tube dilution method; type: functional

Structure (SMILES)	MIC [1]	MIC [2]	MIC [3]	MIC [4]	Activity [5]	Activity [6]	Activity [7]
CCN1C[C@]2(C)CC[C@H](OC)[C@@]34[C@@H]5C[C@@H]6CC[C@](OC(C)=O)([C@@H](C[C@H]23)[C@@H]14)[C@H]5C(=O)O6	100 µg/mL (≈ 239 µM)	200 µg/mL (≈ 479 µM)	250 µg/mL (≈ 599 µM)	150 µg/mL (≈ 359 µM)			
C=C1C[C@@]23CC(=O)[C@@H]4[C@@]5(C)C[C@H](OC(C)=O)C[C@@]46[C@@H]2C[C@@H]1C(=O)[C@@H]3[C@H]6N(C)C5 [PANICUTINE]	75 µg/mL (≈ 196 µM)	125 µg/mL (≈ 326 µM)	200 µg/mL (≈ 522 µM)	125 µg/mL (≈ 326 µM)	Active	Active	Active
C=C1C[C@@]23C(=O)C(=O)[C@@H]4[C@@]5(C)C[C@H](OC(C)=O)C[C@@]46[C@@H]2C[C@@H]1C(=O)[C@@H]3[C@H]6N(C)C5 [VILMORRIANONE]	150 µg/mL (≈ 377 µM)	100 µg/mL (≈ 252 µM)	225 µg/mL (≈ 566 µM)	175 µg/mL (≈ 440 µM)			
